Assay [1] has as its target T1, human recombinant GST cleaved CSNK1D (Homo sapiens, UniProt P48730).
T1 construct: GST (cleaved yes); purchased University of Dundee clone DU 19064
In words: Purified Enzyme Assay (ADP-Glo CSNK1D Kinase Assay). It counts as biochemical. As to conditions: 2 nM CSNK1D; peptide substrate 150 μM; ATP 20 μM; 45 minutes at room temperature. The protocol: In this assay, CSNK1D phosphorylates a substrate peptide PLSRTL-pS-VASLPGL in the presence of ATP. […] This assay monitors CSNK1D kinase activity by measuring the amount of ADP produced in the assay.
The substrate mix is added to each well of a low volume, 384-well, white opaque plate. Test compounds were diluted in HBSS and added in a dose-response to the plate.
The total volume of each reaction is 5 ul (2 μL of substrate mix, 1 μL of diluted compounds, and 2 μL of human recombinant CSNK1D). The plates are incubated for 45 minutes at room temperature.
ADP was quantified using the ADP-Glo™ Kinase Assay. ADP-Glo Reagent (5 μL) was added to each well. After a 1 hour incubation at room temperature, Kinase Detection Reagent (10 μL) was added to each well and incubated for 30 minutes. […] The raw data from the Envision is used to calculate percent activity.
A general note: In ADP-Glo the light output rises with the ADP produced.

For a further assay, the target named is T2, human CSNK1D (Homo sapiens, UniProt P48730).
T2 construct: expressed in transfected cells
T2 sequence (P48730 whole entry): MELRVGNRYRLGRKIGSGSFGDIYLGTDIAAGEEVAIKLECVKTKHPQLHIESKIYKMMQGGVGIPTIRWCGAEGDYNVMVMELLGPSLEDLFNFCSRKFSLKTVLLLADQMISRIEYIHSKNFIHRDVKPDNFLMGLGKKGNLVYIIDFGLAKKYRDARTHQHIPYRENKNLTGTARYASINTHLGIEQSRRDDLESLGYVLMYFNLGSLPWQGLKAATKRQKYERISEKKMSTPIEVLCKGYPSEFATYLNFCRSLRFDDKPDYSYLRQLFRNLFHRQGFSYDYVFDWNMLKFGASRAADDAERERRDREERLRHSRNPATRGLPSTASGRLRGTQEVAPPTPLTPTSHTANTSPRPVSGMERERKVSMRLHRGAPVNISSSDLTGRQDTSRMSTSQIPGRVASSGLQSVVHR
In words: Whole Cell nBRET CSNK1D Binding Assay. As to conditions: living CHO cells stably expressing human CSNK1D tagged with nanoluciferase; NanoBret tracer 130 nM; 2 hours at 37 C.

Drawing on patent US20230339970A1, “CASEIN KINASE 1 DELTA MODULATORS” (priority 2020, published 2023), this text covers IC50 for 23 compounds.

T1 sequence (P48730 whole entry): as above

On to `Fc1ccc(-c2nn3c(c2-c2ccnc4[nH]ncc24)C2CC2C3)nc1` (racemic) [Example 23, 2-(5-Fluoropyridin-2-yl)-3-(1H-pyrazolo[3,4-b]pyridin-4-yl)-3b,4,4a,5-tetrahydrocyclopropa[3,4]pyrrolo[1,2-b]pyrazole], for which the values for the IC50 (in assay [1]; on human CSNK1D) were 3 nM and 48 nM, respectively.

`Cc1cc(-c2c(-c3ccc(F)cn3)nn3c2C2CC2C3)c2cn[nH]c2n1` (racemic) [Example 24, 2-(5-Fluoropyridin-2-yl)-3-(6-methyl-1H-pyrazolo[3,4-b]pyridin-4-yl)-3b,4,4a,5-tetrahydrocyclopropa[3,4]pyrrolo[1,2-b]pyrazole]: the IC50 (in general, the concentration that inhibits the measured activity by half) in assay [1] stood at 4 nM; at human CSNK1D, 55 nM.

As to `Cc1cc(-c2c(-c3ccc(F)cn3)nn3c2CCC2CC23)c2cn[nH]c2n1` (racemic) [Example 57, (Racemic) 2-(5-Fluoropyridin-2-yl)-3-(6-methyl-1H-pyrazolo[3,4-b]pyridin-4-yl)-5,5a,6,6a-tetrahydro-4H-cyclopropa[e]pyrazolo[1,5-a]pyridine], the half-inhibitory concentration (IC50) stood at 6 nM in assay [1] and 57 nM at human CSNK1D.

In the case of `Fc1ccc(-c2nn3c(c2-c2ccnc4[nH]ncc24)CCC2C3C2(F)F)nc1` (racemic) [Example 58, (Racemic) 6,6-Difluoro-2-(5-fluoropyridin-2-yl)-3-(1H-pyrazolo[3,4-b]pyridin-4-yl)-5,5a,6,6a-tetrahydro-4H-cyclopropa[e]pyrazolo[1,5-a]pyridine], the 50% inhibitory concentration (IC50) in assay [1] came to 5 nM; at human CSNK1D, 65 nM.

Consider `Cc1cc(-c2c(-c3ccc(F)cn3)nn3c2CCC2C3C2(F)F)c2cn[nH]c2n1` (racemic) [Example 59, (Racemic) 6,6-Difluoro-2-(5-fluoropyridin-2-yl)-3-(6-methyl-1H-pyrazolo[3,4-b]pyridin-4-yl)-5,5a,6,6a-tetrahydro-4H-cyclopropa[e]pyrazolo[1,5-a]pyridine], for which the IC50 in assay [1] worked out at 4 nM; on human CSNK1D, 82 nM.

Turning to `Cc1cc(-c2c(-c3ccc(F)cc3)nn3c2OCC(C)C3)c2cn[nH]c2n1` (racemic) [Example 192, (R/S)-2-(4-Fluorophenyl)-6-methyl-3-(6-methyl-1H-pyrazolo[3,4-b]pyridin-4-yl)-6,7-dihydro-5H-pyrazolo[5,1-b][1,3]oxazine], the IC50 was found to be 1 nM in assay [1] and 4 nM on human CSNK1D.

As for `Fc1ccc(-c2nn3c(c2-c2ccnc4[nH]ncc24)C2CC2C3)cc1` (racemic) [Example 275, (Racemic) 2-(4-Fluorophenyl)-3-(1H-pyrazolo[3,4-b]pyridin-4-yl)-3b,4,4a,5-tetrahydrocyclopropa[3,4]pyrrolo[1,2-b]pyrazole], the values for the half-maximal inhibitory concentration (IC50) (in assay [1]; on human CSNK1D) were 1 nM and 9 nM, respectively.

On to `CC1(CF)CCc2c(-c3cc(F)ncc3F)c(-c3ccc(F)cn3)nn2C1` (racemic) [Example 288, 3-(2,5-Difluoro-4-pyridyl)-6-(fluoromethyl)-2-(5-fluoro-2-pyridyl)-6-methyl-5,7-dihydro-4H-pyrazolo[1,5-a]pyridine], for which the figures for the IC50 (in assay [1]; on human CSNK1D) were 238 nM and 4100 nM, respectively.

On to `CC(=O)Nc1cc(-c2c(-c3ccc(F)cc3)nn3c2CCC2C3C2(F)F)ccn1` (racemic) [Example 348, N-(4-(6,6-Difluoro-2-(4-fluorophenyl)-5,5a,6,6a-tetrahydro-4H-cyclopropa[e]pyrazolo[1,5-a]pyridin-3-yl)pyridin-2-yl)acetamide], for which the IC50 in assay [1] worked out at 1 nM; at human CSNK1D, 3 nM.

For the compound `C[C@H]1OCc2c(-c3ccnc4[nH]ncc34)c(-c3ccc(F)cc3)nn2[C@H]1C` (relative stereo) [Example 112, (6*R,7*S)-2-(4-Fluorophenyl)-6,7-dimethyl-3-(1H-pyrazolo[3,4-b]pyridin-4-yl)-6,7-dihydro-4H-pyrazolo[5,1-c][1,4]oxazine], the figures for the half-inhibitory concentration (IC50) (in assay [1]; on human CSNK1D) were 3 nM and 54 nM, respectively.

As for `C[C@@H]1[C@@H](C)OCc2c(-c3ccnc4[nH]ncc34)c(-c3ccc(F)cc3)nn21` (relative stereo) [Example 114, (6*R,7*R)-2-(4-Fluorophenyl)-6,7-dimethyl-3-(1H-pyrazolo[3,4-b]pyridin-4-yl)-6,7-dihydro-4H-pyrazolo[5,1-c][1,4]oxazine], the IC50 in assay [1] came out at 6 nM; on human CSNK1D, 55 nM.

In the case of `Cc1cc(-c2c(-c3ccc(F)cc3)nn3c2[C@@H]2C[C@@H]2C3)c2cn[nH]c2n1` (relative stereo) [Example 276, (3b*R,4a*S)-2-(4-Fluorophenyl)-3-(6-methyl-1H-pyrazolo[3,4-b]pyridin-4-yl)-3b,4,4a,5-tetrahydrocyclopropa[3,4]pyrrolo[1,2-b]pyrazole], the half-maximal inhibitory concentration (IC50) in assay [1] was 1 nM; at human CSNK1D, 6 nM.

With `Cc1nc(-c2c(-c3ccc(F)cn3)nn3c2CC[C@@H]2C[C@@H]23)c2cn[nH]c2n1` (relative stereo) [Example 347, (5a*R,6a*S)-2-(5-fluoropyridin-2-yl)-3-(6-methyl-1H-pyrazolo[3,4-d]pyrimidin-4-yl)-5,5a,6,6a-tetrahydro-4H-cyclopropa[e]pyrazolo[1,5-a]pyridine], the figures for the concentration for half-maximal inhibition (IC50) (in assay [1]; at human CSNK1D) were 35 nM and 573 nM, respectively.

As for `CC1CCCc2c(-c3ccnc4[nH]ncc34)c(-c3ccc(F)cc3)nn21` (single isomer, unassigned) [Example 39, (*R)-4-[2-(4-Fluorophenyl)-7-methyl-4,5,6,7-tetrahydropyrazolo[1,5-a]pyridin-3-yl]-1H-pyrazolo[3,4-b]pyridine], the IC50 in assay [1] was determined as 4 nM; on human CSNK1D, 39 nM.

Regarding `C[C@H]1CCCc2c(-c3ccnc4[nH]ncc34)c(-c3ccc(F)cc3)nn21` (single isomer, unassigned) [Example 40, (*S)-4-[2-(4-Fluorophenyl)-7-methyl-4,5,6,7-tetrahydropyrazolo[1,5-a]pyridin-3-yl]-1H-pyrazolo[3,4-b]pyridine], the values for the 50% inhibitory concentration (IC50) (in assay [1]; at human CSNK1D) were 4 nM and 41 nM, respectively.

Turning to `C[C@]1(CF)CCc2c(-c3ccnc4[nH]ncc34)c(-c3ccc(F)cn3)nn2C1` (single isomer, unassigned) [Example 51, (*)-4-[6-(Fluoromethyl)-2-(5-fluoro-2-pyridyl)-6-methyl-5,7-dihydro-4H-pyrazolo[1,5-a]pyridin-3-yl]-1H-pyrazolo[3,4-b]pyridine], the half-maximal inhibitory concentration (IC50) in assay [1] was determined as 1 nM; on human CSNK1D, 11 nM.

With `C[C@@]1(CF)CCc2c(-c3ccnc4[nH]ncc34)c(-c3ccc(F)cn3)nn2C1` (single isomer, unassigned) [Example 52, (*R)-4-[6-(Fluoromethyl)-2-(5-fluoro-2-pyridyl)-6-methyl-5,7-dihydro-4H-pyrazolo[1,5-a]pyridin-3-yl]-1H-pyrazolo[3,4-b]pyridine], the IC50 in assay [1] is 1 nM; at human CSNK1D, 11 nM.

With `COC[C@]1(F)CCc2c(-c3cc(C)nc4[nH]ncc34)c(-c3ccc(F)cn3)nn2C1` (single isomer, unassigned) [Example 53, (*S)-4-(6-Fluoro-2-(5-fluoropyridin-2-yl)-6-(methoxymethyl)-4,5,6,7-tetrahydropyrazolo[1,5-a]pyridin-3-yl)-6-methyl-1H-pyrazolo[3,4-b]pyridine], the figures for the IC50 (in assay [1]; on human CSNK1D) were 4 nM and 31 nM, respectively.

Turning to `COC[C@@]1(F)CCc2c(-c3cc(C)nc4[nH]ncc34)c(-c3ccc(F)cn3)nn2C1` (single isomer, unassigned) [Example 54, (*R)-4-(6-Fluoro-2-(5-fluoropyridin-2-yl)-6-(methoxymethyl)-4,5,6,7-tetrahydropyrazolo[1,5-a]pyridin-3-yl)-6-methyl-1H-pyrazolo[3,4-b]pyridine], the half-inhibitory concentration (IC50) came out at 84 nM in assay [1] and 3740 nM at human CSNK1D.

Take `COC[C@@]1(C)CCc2c(-c3cc(C)nc4[nH]ncc34)c(-c3ccc(F)cn3)nn2C1` (single isomer, unassigned) [Example 55, (*S)-4-(2-(5-Fluoropyridin-2-yl)-6-(methoxymethyl)-6-methyl-4,5,6,7-tetrahydropyrazolo[1,5-a]pyridin-3-yl)-6-methyl-1H-pyrazolo[3,4-b]pyridine]: the half-inhibitory concentration (IC50) in assay [1] stood at 3 nM; on human CSNK1D, 125 nM.

Compound `CC1(CC2COC2)CCc2c(-c3ccnc4[nH]ncc34)c(-c3ccc(F)cn3)nn2C1` (single isomer, unassigned) [Example 321, (*S)-4-(2-(5-Fluoropyridin-2-yl)-6-methyl-6-(oxetan-3-ylmethyl)-4,5,6,7-tetrahydropyrazolo[1,5-a]pyridin-3-yl)-1H-pyrazolo[3,4-b]pyridine] gave a 50% inhibitory concentration (IC50) on human CSNK1D of 37 nM.

`Fc1ccc(-c2nn3c(c2-c2ccnc4[nH]ncc24)COC(C(F)(F)F)C3)cc1` (stereo not shown) [Example 99, 2-(4-Fluorophenyl)-3-(1H-pyrazolo[3,4-b]pyridin-4-yl)-6-(trifluoromethyl)-6,7-dihydro-4H-pyrazolo[5,1-c][1,4]oxazine]: the IC50 on human CSNK1D is 54 nM.

Compound `FCC1Cn2nc(-c3ccc(F)cc3)c(-c3cnc4[nH]ncc4c3)c2CO1` (stereo not shown) [Example 103, 6-(Fluoromethyl)-2-(4-fluorophenyl)-3-(1H-pyrazolo[3,4-b]pyridin-5-yl)-6,7-dihydro-4H-pyrazolo[5,1-c][1,4]oxazine] gave an IC50 at human CSNK1D of 15 nM.
